The source made the active and inactive calls.
Experiments:
[1] = viability loss in THP-1 monocytes – THP-1 cells, cytotoxicity control for Vif-APOBEC3G degradation inhibitor project, dose response (AID 1117359); type: functional; settings: THP-1
[2] = biological target: T1, Luciferin 4-monooxygenase (Photinus pyralis, UniProt P08659); experiment: inhibition of purified Photinus pyralis luciferase – biochemical, luminescence, dose response (AID 1891)
[3] = alpha-synuclein stem-loop translation blockers – luminescence, H4 neuroglioblastoma cells, dose confirmation, confirmation (AID 2454); type: functional, cell-based;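 further: H4 neuroglioblastoma cells carrying an alpha-synuclein 5'UTR luciferase reporter; potency for inhibition of the luciferase signal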
[4] = luciferase reporter signal reduction – luminescence, H4-C neuroglioblastoma cells, dose response (AID 2458); type: functional, cell-based;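 further: H4 neuroglioblastoma cells stably carrying a luciferase reporter gene fusion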
[5] = cells; type: functional, cell-based
[6] = alpha-synuclein stem-loop luciferase translation blockers – H4 neuroglioma cells, luminescence, confirmation (AID 1988); type: functional, cell-based
[7] = luciferase reporter signal suppression in cells – H4 neuroglioma cells, luminescence, dose response (AID 1990); type: functional, cell-based
[8] = Luminescence Cell-Based Dose Confirmation HTS to Identify Inhibitors of Platelet Dense Granule Release. [Related pubchem assays: 1663 (Primary HTS), 1678 (Summary of Project)]; type: functional
[9] = viability of PTEN-deleted HCT116 cells – cell-based, HCT116 PTEN knockout, dose response (AID 1047); type: functional;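 further: HCT116 colon tumor cells with PTEN knocked out; cells exposed to compound for 60 hours before readout; potency for loss of cell viability measured by luminescence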
[10] = A Cell Based Secondary Assay To Explore Cytotoxicity of Compounds that Sensitize Mycobacterium Tuberculosis to Beta-Lactam Antibiotics.; type: functional
[11] = viability of HCT116 lacking mutant beta-catenin – cell-based, human colon tumor, dose response (AID 1045); type: functional;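 further: HCT116 colon tumor cells with beta catenin knocked out; cells exposed to compound for 60 hours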
[12] = system: H9c2; experiment: cells; type: functional, cell-based; settings: Rattus norvegicus, H9c2, Myocardium;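 further: confirmatory concentration-response retest of ultra-high-throughput screening hits for modulation of myocardial damage; cell death induced by hydrogen peroxide oxidative stress; compound pretreatment for 60 min then peroxide exposure for 2 h; potency is for protecting the cells against peroxide damage rather than for killing them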
[13] = biological target: Lysosomal acid glucosylceramidase (Homo sapiens, UniProt P04062); experiment: Dose response cell-based high throughput screening assay to identify enhancers of beta-glucosidase activity. [Related pubchem assays: 784 ]; type: functional
[14] = system: HEK293; experiment: cells; settings: Homo sapiens
[15] = blockade of melanocortin 4 receptor signaling – cell-based, plate reader, cherry pick, counter-screen for LGR2 antagonist project, dose response (AID 743444); type: functional;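 further: transfected HEK 293 cells stimulated with alpha-MSH peptide; potency of inhibitors of the alpha-MSH evoked signal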
[16] = reduced cellular PGC1a acetyl-lysine signal – cell-based, cherry-picked samples, dose response (AID 720514); type: functional;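 further: potency may reflect raised or lowered acetylation signal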
[17] = toxicity toward HepG2 liver cells – cell-based, plate reader, cherry-pick, antagonist series, cytotoxicity control, dose response (AID 743416); type: functional
[18] = blockers of bursicon-stimulated LGR2 cAMP reporter – cell-based, HEK293, CRE-luciferase reporter, cherry pick, set 2, dose response (AID 743343); type: functional;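 further: transfected cells were stimulated with diluted bursicon conditioned medium after compound addition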
[19] = microbe, parasite or virus in culture; type: functional; settings: Mycobacterium tuberculosis
[20] = system: INS1; experiment: INS-1E survival protection against cytokine death – cell-based, luminescence, retest, dose response (AID 449756); type: functional; settings: Rattus norvegicus;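 further: cell death triggered by IL-1 beta plus TNF-alpha plus IFN-gamma mixture; protective hits raise ATP signal compared with cytokine alone wells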
[21] = viability loss in HEK293 cells – cell-based, plate reader, cherry-picked samples, cytotoxicity control, dose response (AID 743446); type: functional
[22] = system: HEK293; experiment: cells; settings: Homo sapiens; remark: listed apart in the source
[23] = biological target: Heat shock protein HSP 90-alpha (Homo sapiens, UniProt P07900); experiment: Luminescence-based dose response biochemical high throughput screening assay for inhibitors of the Heat Shock Protein 90 (HSP90). [Related pubchem assays: 1831 (Summary AID.), 1846 (Confirmation screen.), 1789 (Primary screen.)]
[24] = Trypanosoma cruzi growth suppression in host cells – NIH3T3 host cells, beta-gal luminescence, confirmation (AID 2044); type: functional, cell-based;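 further: intracellular parasites grown in NIH/3T3 mouse fibroblasts as host cells; luminescent beta-galactosidase reporter signal from transgenic T. cruzi replicating inside host cells; inhibitors lower the luminescence signal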
[25] = NIH3T3 cell viability loss – ATP luminescence, mouse fibroblasts, counter-screen, dose response (AID 2010); type: functional, cell-based;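 further: cells exposed to compound for about 90 hours before reading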
[26] = system: A-375; experiment: MITF: Counter assay: A375 proliferation Measured in Cell-Based System Using Plate Reader - 2084-03_Inhibitor_Dose_DryPowder_Activity. [Related pubchem assays (depositor defined):AID488944]; type: functional; settings: Homo sapiens
[27] = system: HT-1080; experiment: HT1080 cell viability loss – fluorescence readout (AID 620); type: functional, cell-based; settings: Homo sapiens
[28] = biological target: T1, Luciferin 4-monooxygenase; experiment: Counter Screen for Luciferase-based Assay Positives. [Related pubchem assays: 620, 618, 411 ]
[29] = biological target: T2, Leucine aminopeptidase (Plasmodium falciparum 3D7, UniProt Q8IL11); experiment: P. falciparum M17LAP inhibitors, primary screen, biochemical, fluorogenic H-Leu-NHMec substrate, 1536-well (AID 1619); type: functional
T2 sequence (Q8IL11 whole entry): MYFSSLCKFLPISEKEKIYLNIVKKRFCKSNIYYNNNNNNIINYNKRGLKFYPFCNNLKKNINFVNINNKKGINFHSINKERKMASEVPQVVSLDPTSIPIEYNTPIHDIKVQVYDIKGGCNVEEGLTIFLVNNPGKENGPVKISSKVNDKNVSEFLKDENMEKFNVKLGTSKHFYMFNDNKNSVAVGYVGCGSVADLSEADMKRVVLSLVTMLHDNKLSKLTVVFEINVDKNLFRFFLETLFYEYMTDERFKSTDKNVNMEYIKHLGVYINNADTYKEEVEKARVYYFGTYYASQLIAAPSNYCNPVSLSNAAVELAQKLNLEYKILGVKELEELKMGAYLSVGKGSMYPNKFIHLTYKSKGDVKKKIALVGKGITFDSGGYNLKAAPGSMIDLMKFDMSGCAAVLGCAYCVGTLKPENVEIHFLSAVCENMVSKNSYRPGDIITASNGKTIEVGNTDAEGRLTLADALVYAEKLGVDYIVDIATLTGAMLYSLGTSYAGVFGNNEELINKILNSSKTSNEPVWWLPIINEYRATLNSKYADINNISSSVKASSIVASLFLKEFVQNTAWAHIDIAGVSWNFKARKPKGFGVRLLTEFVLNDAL

[30] = biological target: T3, Mannose-6-phosphate isomerase (Homo sapiens, UniProt P34949); experiment: MPI enzyme activity inhibition – biochemical, fluorescence intensity, coupled assay, primary screen (AID 1209)
T3 sequence (P34949 whole entry): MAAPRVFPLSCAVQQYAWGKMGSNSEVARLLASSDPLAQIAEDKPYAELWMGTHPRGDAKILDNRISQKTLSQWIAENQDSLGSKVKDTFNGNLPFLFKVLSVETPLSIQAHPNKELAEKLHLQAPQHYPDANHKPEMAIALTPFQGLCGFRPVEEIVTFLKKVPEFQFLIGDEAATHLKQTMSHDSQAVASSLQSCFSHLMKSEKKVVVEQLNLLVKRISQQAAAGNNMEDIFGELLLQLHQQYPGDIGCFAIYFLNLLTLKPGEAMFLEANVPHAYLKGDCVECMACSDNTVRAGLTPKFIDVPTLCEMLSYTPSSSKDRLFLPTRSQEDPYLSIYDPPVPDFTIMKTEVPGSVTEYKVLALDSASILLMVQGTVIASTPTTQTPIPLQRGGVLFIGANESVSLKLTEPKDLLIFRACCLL

[31] = cells

T1 sequence (P08659 whole entry): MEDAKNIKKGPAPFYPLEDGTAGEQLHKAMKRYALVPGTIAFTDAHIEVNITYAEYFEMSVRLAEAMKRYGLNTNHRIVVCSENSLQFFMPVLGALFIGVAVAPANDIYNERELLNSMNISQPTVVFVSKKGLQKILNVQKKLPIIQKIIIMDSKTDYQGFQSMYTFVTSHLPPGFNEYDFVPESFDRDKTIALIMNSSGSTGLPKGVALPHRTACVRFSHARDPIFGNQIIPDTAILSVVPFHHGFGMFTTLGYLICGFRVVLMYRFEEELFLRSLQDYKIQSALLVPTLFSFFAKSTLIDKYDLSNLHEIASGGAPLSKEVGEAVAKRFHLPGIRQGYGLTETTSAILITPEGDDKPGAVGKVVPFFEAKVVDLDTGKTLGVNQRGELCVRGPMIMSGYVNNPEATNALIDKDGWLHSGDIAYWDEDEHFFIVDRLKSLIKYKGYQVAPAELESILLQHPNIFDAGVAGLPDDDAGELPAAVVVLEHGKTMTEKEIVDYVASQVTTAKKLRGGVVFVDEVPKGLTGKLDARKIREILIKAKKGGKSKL
Lysosomal acid glucosylceramidase, sequence (P04062 whole entry): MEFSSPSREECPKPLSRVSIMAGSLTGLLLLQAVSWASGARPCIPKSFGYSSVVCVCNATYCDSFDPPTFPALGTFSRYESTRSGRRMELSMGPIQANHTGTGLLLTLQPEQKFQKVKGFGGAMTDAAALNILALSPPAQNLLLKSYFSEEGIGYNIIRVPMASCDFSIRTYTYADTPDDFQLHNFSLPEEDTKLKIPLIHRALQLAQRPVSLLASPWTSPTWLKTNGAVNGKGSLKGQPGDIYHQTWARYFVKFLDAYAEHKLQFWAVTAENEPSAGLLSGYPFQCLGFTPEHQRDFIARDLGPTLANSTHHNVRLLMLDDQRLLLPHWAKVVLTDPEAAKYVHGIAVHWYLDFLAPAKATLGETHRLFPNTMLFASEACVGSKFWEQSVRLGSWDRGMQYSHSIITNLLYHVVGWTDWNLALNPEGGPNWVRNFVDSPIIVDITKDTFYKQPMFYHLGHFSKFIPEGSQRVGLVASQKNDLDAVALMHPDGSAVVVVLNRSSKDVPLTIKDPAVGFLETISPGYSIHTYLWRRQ

For `Cc1ccc2c(c1)CCCN2C(=O)c1cc(C)c(C)s1`, the CC50 [1] was > 40 µM (active).
For `CCN(CC)c1ccc(C2=NNC(=O)CC2C)cc1[N+](=O)[O-]` (stereo not drawn), the EC50 [2] was > 112 µM (not active), the EC50 [3] was 123 nM (active) and the EC50 [4] was 50 nM (active). The EC50 [5] was 194 nM (active), the EC50 [6] was < 100 nM (active) and the EC50 [7] was < 100 nM (active). For the same compound, the EC50 [8] was 504 nM (active).
In the case of `COc1ccc(OC)c(C2CC(c3c(O)nc4ccc(Cl)cc4c3-c3ccccc3)=NN2S(C)(=O)=O)c1` (stereo not drawn), the EC50 [9] is reported as 9.08 µM (active), the CC50 [10] is reported as > 40 µM (active) and the EC50 [11] is reported as 11.3 µM (active).
For `CN(CC1COc2ccccc2O1)c1nc(-c2cccnc2)nc2ccccc12` (stereo not drawn), the IC50 [12] was 24.4 µM (active) and the EC50 [13] was 2.65 µM (active).
For `O=C(Cn1ncc(Cl)c(Cl)c1=O)c1ccc2c(c1)OCCO2`, the EC50 [14] was > 59.5 µM (inactive), the AC50 [15] was 36.5 µM (active) and the AC50 [16] was 15.4 µM (active). For the same compound, the AC50 [17] was 21.3 µM (active), the CC50 [1] was 9.67 µM (active) and the AC50 [18] was 28.4 µM (active). The CC50 [19] was 13.8 µM (active), the AC50 [20] was > 120 µM (inactive) and the AC50 [21] was 17 µM (active). For the same compound, the EC50 [22] was > 59.5 µM (inactive).
With `Nc1c(-c2ccccc2)cnn1-c1ccc(C(=O)O)cc1` the IC50 [23] was 5.93 µM (active).
In the case of `Cc1cc(C)c2nc(N3CCC(C(=O)NCCCN4CC(C)CC(C)C4)CC3)sc2c1` (stereo not drawn), the EC50 [24] is reported as 1.22 µM (active), the IC50 [23] is reported as 8.62 µM (active) and the EC50 [25] is reported as > 60 µM (not active). For the same compound, the AC50 [26] was 21.5 µM (active).
In the case of `Cc1cnc(NC(=O)C2COc3ccccc3O2)s1` (stereo not drawn), the EC50 [27] is reported as > 50 µM (not active) and the EC50 [28] is reported as 1.95 µM (active).
For `CC(=O)NNC(=S)NC(=O)c1cccc([N+](=O)[O-])c1`, the IC50 [29] was 45.8 µM (active) and the IC50 [30] was > 50 µM (not active).
With `Cc1ccc(/C=N\NC(=O)C2CN(S(=O)(=O)c3ccccc3)CCN2S(=O)(=O)c2ccccc2)cc1` (stereo not drawn) the IC50 [31] was 13.6 µM (active).

— ChEMBL document CHEMBL1201862, “PubChem BioAssay data set” (2004)
